Reference: ChEMBL document CHEMBL1125892 (J Med Chem, 1991)

Assays:
[1] = target: T1, 5-hydroxytryptamine receptor 1A (Rattus norvegicus, UniProt P19327); assay: Displacement of [3H]8-OH-DPAT from rat hippocampal 5-hydroxytryptamine 1A receptor; IA-Inactive; type: tissue-based, Hippocampus
T1 sequence (P19327 whole entry): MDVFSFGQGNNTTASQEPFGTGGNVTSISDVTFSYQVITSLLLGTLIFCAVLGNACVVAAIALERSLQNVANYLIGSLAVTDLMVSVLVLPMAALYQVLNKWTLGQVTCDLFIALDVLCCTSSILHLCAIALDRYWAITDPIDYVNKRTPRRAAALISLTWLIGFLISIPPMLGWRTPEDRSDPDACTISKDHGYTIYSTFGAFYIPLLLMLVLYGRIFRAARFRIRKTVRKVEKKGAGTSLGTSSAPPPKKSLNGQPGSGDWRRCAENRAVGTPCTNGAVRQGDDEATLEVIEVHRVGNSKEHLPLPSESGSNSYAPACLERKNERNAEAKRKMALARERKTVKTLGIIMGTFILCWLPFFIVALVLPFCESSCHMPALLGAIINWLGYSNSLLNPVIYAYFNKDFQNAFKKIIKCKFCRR

D(2) dopamine receptor [2] = target: T2, D(2) dopamine receptor (Rattus norvegicus, UniProt P61169)
[3] = target: T3, 5-hydroxytryptamine receptor 2A (Rattus norvegicus, UniProt P14842); assay: Binding affinity against rat 5-hydroxytryptamine 2 receptor in rat cerebral cortex tissue using [3H]spiperone as radioligand; IA-Inactive; type: tissue-based
Rattus norvegicus [4] = assay: In vivo inhibition of conditional avoidance response in rats(CAR), after po administration; type: functional
Rattus norvegicus [5] = assay: In vivo inhibition of conditional avoidance response in rats(CAR), after sc administration; type: functional
[6] = target: T1, 5-hydroxytryptamine receptor 1A; assay: Binding affinity against 5-hydroxytryptamine 1A receptor of rat hippocampal tissue with [3H]5-HT; type: tissue-based, Hippocampus
Rattus norvegicus [7] = species: Rattus norvegicus; assay: Selectivity ratio of IC50 for dopamine receptor and Alpha-1 receptor
[8] = target: T4, Adrenergic receptor alpha-1 (Rattus norvegicus, UniProt P15823+P23944+P43140); assay: Binding affinity against alpha-1 adrenergic receptor in rat cerebral cortex tissue using [3H]WB-4101 as radioligand; type: tissue-based
T4 sequence (P15823 whole entry): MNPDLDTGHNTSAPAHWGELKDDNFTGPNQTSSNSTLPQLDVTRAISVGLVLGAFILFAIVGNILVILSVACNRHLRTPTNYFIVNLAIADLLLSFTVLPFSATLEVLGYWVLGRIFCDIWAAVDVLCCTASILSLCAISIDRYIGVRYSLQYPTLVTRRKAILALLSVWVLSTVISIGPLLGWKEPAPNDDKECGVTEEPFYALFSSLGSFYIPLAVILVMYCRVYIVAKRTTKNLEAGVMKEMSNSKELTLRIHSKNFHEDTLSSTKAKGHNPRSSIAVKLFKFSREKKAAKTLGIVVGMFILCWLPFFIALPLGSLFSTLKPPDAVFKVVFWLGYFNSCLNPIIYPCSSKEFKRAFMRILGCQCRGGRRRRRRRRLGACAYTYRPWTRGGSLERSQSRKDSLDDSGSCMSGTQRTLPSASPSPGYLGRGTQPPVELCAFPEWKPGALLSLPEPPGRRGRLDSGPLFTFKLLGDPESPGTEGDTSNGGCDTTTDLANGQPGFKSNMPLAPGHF
T4 sequence (P23944 whole entry): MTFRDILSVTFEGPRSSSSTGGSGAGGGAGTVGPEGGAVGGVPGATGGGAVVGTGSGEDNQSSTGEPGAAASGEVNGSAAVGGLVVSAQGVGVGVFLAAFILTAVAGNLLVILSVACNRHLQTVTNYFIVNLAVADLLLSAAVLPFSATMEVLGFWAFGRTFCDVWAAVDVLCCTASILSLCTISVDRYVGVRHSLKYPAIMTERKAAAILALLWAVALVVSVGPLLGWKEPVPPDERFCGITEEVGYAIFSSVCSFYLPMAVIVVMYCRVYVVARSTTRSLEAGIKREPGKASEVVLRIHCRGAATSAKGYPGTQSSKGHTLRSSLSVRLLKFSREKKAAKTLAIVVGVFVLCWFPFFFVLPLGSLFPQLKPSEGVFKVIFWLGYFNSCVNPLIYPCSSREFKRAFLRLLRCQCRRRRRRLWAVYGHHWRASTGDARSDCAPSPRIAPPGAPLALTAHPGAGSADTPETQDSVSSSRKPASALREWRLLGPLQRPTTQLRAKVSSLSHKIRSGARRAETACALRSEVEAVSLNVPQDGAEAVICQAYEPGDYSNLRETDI
T4 sequence (P43140 whole entry): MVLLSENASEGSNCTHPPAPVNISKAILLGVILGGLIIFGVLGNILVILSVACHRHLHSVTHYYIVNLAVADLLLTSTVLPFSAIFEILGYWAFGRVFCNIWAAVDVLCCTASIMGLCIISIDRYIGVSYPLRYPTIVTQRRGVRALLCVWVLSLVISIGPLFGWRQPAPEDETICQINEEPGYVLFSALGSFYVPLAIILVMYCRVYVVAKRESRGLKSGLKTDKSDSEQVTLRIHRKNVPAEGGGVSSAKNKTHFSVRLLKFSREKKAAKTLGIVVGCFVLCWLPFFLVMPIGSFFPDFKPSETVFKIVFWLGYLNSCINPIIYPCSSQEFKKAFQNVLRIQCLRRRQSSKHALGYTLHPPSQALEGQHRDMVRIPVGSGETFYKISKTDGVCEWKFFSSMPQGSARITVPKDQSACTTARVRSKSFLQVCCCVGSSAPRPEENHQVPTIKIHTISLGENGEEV

[9] = target: T1, 5-hydroxytryptamine receptor 1A; assay: Binding affinity against 5-hydroxytryptamine 1A receptor using in rat hippocampal tissue using [3H]8-OH-DPAT as radioligand; type: tissue-based, Hippocampus
[10] = target: T3, 5-hydroxytryptamine receptor 2A; assay: Binding affinity against rat 5-hydroxytryptamine 2 receptor in rat cerebral cortex tissue using [3H]spiperone as radioligand; type: tissue-based
D(2) dopamine receptor [11] = target: T2, D(2) dopamine receptor; assay: Binding affinity against dopamine receptor D2 in rat corpus striatal tissue using [3H]spiperone as radioligand; type: tissue-based, Striatum
Rattus norvegicus [12] = assay: In vivo inhibition of conditional avoidance response in rats(CAR), after im administration; type: functional
D(2) dopamine receptor [13] = target: T2, D(2) dopamine receptor; assay: Binding affinity against Dopamine receptor D2 receptor of rat corpus striatal tissue with [3H]spiperone

T3 sequence (P14842 whole entry): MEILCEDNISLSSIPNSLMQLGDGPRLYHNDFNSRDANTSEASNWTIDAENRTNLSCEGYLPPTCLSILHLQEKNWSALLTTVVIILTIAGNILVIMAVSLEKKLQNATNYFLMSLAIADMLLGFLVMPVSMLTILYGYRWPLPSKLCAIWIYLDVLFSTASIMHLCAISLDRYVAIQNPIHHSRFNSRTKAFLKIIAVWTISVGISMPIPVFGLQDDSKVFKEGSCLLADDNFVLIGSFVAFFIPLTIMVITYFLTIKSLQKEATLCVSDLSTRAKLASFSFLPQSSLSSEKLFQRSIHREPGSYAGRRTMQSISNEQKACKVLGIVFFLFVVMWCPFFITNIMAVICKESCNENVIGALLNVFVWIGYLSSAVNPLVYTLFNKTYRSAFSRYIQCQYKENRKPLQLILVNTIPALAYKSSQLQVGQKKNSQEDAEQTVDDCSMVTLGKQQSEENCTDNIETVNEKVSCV
T2 sequence (P61169 whole entry): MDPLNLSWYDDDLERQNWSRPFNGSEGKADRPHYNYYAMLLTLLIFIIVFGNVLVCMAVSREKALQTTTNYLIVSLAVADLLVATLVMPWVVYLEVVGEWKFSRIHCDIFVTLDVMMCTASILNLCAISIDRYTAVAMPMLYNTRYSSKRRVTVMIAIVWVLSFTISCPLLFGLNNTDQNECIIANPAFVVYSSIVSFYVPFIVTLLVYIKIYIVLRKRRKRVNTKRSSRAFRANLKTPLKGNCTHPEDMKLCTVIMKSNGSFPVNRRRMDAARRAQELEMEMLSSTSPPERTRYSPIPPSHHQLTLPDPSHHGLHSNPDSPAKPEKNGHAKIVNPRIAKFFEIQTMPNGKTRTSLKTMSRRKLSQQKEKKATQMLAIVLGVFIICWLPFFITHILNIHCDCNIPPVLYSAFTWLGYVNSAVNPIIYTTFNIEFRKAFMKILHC

Structure (SMILES) | IC50 [1] | IC50 (D(2) dopamine receptor [2]) | IC50 [3] | IC50 [9] | other results
O=S1(=O)N=C(N2CCNCC2)c2ccccc21 [BENZISOTHIAZOLE-3YL-PIPERAZINE SULFOXIDE] | Not Active | Not Active | Not Active |  | ED50 (Rattus norvegicus [4]): > 100 mg/kg
O=C1CC2(CCCC2)CC(=O)N1CCC(O)CN1CCN(c2n[s+]([O-])c3ccccc23)CC1 (stereo not drawn) | Not Active | Not Active | Not Active |  | ED50 (Rattus norvegicus [4]): > 50 mg/kg
O=C1CC2(CCCC2)C(O)C(=O)N1CCCCN1CCN(c2n[s+]([O-])c3ccccc23)CC1 (stereo not drawn) | Not Active | Not Active | Not Active |  | 
O=C1CCC2(C1)CC(=O)N(CCCCN1CCN(c3n[s+]([O-])c4ccccc34)CC1)C(=O)C2 (stereo not drawn) | Not Active | Not Active | Not Active |  | ED50 (Rattus norvegicus [5]): > 100 mg/kg
COc1cccc2snc(N3CCNCC3)c12 |  | Not Active | Not Active |  | IC50 [6]: 121 nM
O=C1CC2(CCC(O)C2)CC(=O)N1CCCCN1CCN(c2n[s+]([O-])c3ccccc23)CC1 (stereo not drawn) | Not Active | Not Active | Not Active |  | ED50 (Rattus norvegicus [5]): > 100 mg/kg
O=C1CN(C2=NS(=O)(=O)c3ccccc32)CCN1 | Not Active | Not Active | Not Active |  | ED50 (Rattus norvegicus [5]): > 50 mg/kg
O=C1CC2(CCCC2)C(C(=O)NCCCCN2CCN(c3nsc4ccccc34)CC2)O1 (stereo not drawn) |  |  |  | 98.7 nM | Ratio (Rattus norvegicus [7]): 60; IC50 [8]: 2.5 nM; IC50 [10]: 4.5 nM; IC50 (D(2) dopamine receptor [11]): 150 nM
COc1ccc2c(N3CCNCC3)nsc2c1 | Not Active | Not Active | Not Active |  | 
O=C1CC2(CCC(O)C2)CC(=O)N1CCCCN1CCN(c2nsc3ccccc23)CC1 (stereo not drawn) |  |  |  | 3.75 nM | Ratio (Rattus norvegicus [7]): 60; IC50 [8]: 0.876 nM; IC50 (D(2) dopamine receptor [11]): 52.5 nM
O=C1CC2(CCCC2)CC(=O)N1CCCCN1CCN(c2n[s+]([O-])c3ccccc23)CC1 (stereo not drawn) | Not Active | Not Active | Not Active |  | ED50 (Rattus norvegicus [4]): 11 mg/kg
O=C1CC2(CCC(O)C2)CC(=O)N1CCCCN1CCN(C2=NS(=O)(=O)c3ccccc32)CC1 (stereo not drawn) | Not Active | Not Active | Not Active |  | ED50 (Rattus norvegicus [5]): > 100 mg/kg
COc1cccc2c(N3CCNCC3)nsc12 | Not Active | Not Active | Not Active |  | 
O=C1CC2(CCCC2)CC(=O)N1CCC(O)CN1CCN(c2nsc3ccccc23)CC1 (stereo not drawn) |  |  |  | 24.9 nM | Ratio (Rattus norvegicus [7]): 13; IC50 [8]: 8.3 nM; IC50 (D(2) dopamine receptor [11]): 111 nM
O=C1CC2(CCC(O)C2)CC(=O)N1CCC(O)CN1CCN(c2nsc3ccccc23)CC1 (stereo not drawn) |  |  |  | 14.2 nM | Ratio (Rattus norvegicus [7]): 69; IC50 [8]: 7.15 nM; IC50 (D(2) dopamine receptor [11]): 491 nM
O=C1CC2(CCCC2)C(O)C(=O)N1CCCCN1CCN(C2=NS(=O)(=O)c3ccccc32)CC1 (stereo not drawn) | Not Active | Not Active | Not Active |  | 
COc1ccc2snc(N3CCNCC3)c2c1 |  | Not Active | Not Active |  | IC50 [6]: 20.9 nM
O=C1CC2(CCCC2)CC(=O)N1CCCCN1CCN(C2=NS(=O)(=O)c3ccccc32)CC1 | Not Active | Not Active | Not Active |  | ED50 (Rattus norvegicus [12]): > 10 mg/kg
O=C1CC2(CCCC2)C(O)C(=O)N1CCCCN1CCN(c2nsc3ccccc23)CC1 (stereo not drawn) |  |  |  | 5.06 nM | ED50 (Rattus norvegicus [12]): 1 mg/kg
O=C1CCC2(C1)CC(=O)N(CCCCN1CCN(c3nsc4ccccc34)CC1)C(=O)C2 |  |  |  | 2.99 nM | Ratio (Rattus norvegicus [7]): 52; ED50 (Rattus norvegicus [5]): > 60.3 mg/kg; IC50 [8]: 1.3 nM; IC50 (D(2) dopamine receptor [11]): 68.3 nM
c1ccc2c(N3CCNCC3)nsc2c1 [BENZISOTHIAZOLE-3-YL-PIPERAZINE] |  | Not Active |  | 190 nM | ED50 (Rattus norvegicus [4]): > 100 mg/kg
O=C1CC2(CCCC2)CC(=O)N1CCCCN1CCN(c2nsc3ccccc23)CC1 [TIOSPIRONE] |  |  |  |  | ED50 (Rattus norvegicus [12]): 0.35 mg/kg; IC50 (D(2) dopamine receptor [13]): 8.4 nM
[O-][s+]1nc(N2CCNCC2)c2ccccc21 (stereo not drawn) [BITP-SULFONE] | Not Active | Not Active | Not Active |  | ED50 (Rattus norvegicus [4]): > 100 mg/kg
